One series has as its target T1, Human IBAT Transporter (Homo sapiens, UniProt Q12908).
T1 sequence (Q12908 1-348): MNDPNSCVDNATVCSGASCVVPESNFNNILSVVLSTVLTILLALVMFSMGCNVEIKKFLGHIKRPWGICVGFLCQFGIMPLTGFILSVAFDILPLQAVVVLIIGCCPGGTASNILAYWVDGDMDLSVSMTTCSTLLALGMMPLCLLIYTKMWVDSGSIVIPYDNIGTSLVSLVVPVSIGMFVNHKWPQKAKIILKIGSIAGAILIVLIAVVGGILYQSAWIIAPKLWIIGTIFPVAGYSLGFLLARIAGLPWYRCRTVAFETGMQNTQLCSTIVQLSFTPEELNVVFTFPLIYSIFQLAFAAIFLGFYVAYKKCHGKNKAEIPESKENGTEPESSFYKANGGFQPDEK
Nature of the series: Electrogenic transport in Xenopus oocytes expressing IBAT. Type of series: cell-based. The note with it: relative to glycodeoxycholate, test compound 100 μM. How it is done:
Human IBAT Transporter cDNAs were subcloned into a modified pGEM plasmid that contains 5′ and 3′ untranslated sequences from the Xenopus β-actin gene. These sequences increase RNA stability and protein expression. Plasmid cDNA was linearized and used as template for in vitro transcription (Epicentre Technologies transcription kit, 4:1 methylated:non-methylated GTP).
Xenopus oocyte isolation. Xenopus laevis frogs were anesthetized by immersion in Tricaine ([…] in deionized water) for 15 min. Oocytes were removed and digested in frog ringer solution (90 mM NaCl, 2 mM KCl, 1 mM MgCl2, 10 mM NaHEPES, pH 7.45, no CaCl2) with 1 mg/mL collagenase (Worthington Type 3) for 80-100 min with shaking. The oocytes were washed 6 times, and the buffer changed to frog ringer solution containing CaCl2(1.8 mM). Remaining follicle cells were removed if necessary. Cells were incubated at 16° C., and each oocyte injected with […] RNA in […] solution.
Electrophysiology measurements. Transport currents were measured 2-14 days after injection, using a standard two-electrode electrophysiology set-up (Geneclamp 500 amplifier, Digidata 1320/PCLAMP software and ADInstruments hardware and software were used for signal acquisition). Electrodes ([…]) were microfabricated using a Sutter Instrument puller and filled with 3M KCl. The bath was directly grounded (transporter currents were less than 0.3 μA). Bath flow was controlled by an automated perfusion system (ALA Scientific Instruments, solenoid valves).
For transporter pharmacology, oocytes were clamped at −60 to −90 mV, and continuous current measurements acquired using PowerLab Software and an ADInstruments digitizer. Current signals were lowpass filtered at 20 Hz and acquired at 4-8 Hz. All bath and drug-containing solutions were frog ringers solution containing CaCl2. Drugs were applied for 10-30 seconds until the induced current reached a new steady-state level, followed by a control solution until baseline currents returned to levels that preceded drug application. […]

The conditions of series [1]: cited from earlier work; for half-life: human, in vivo.

`CC(CCC(=O)NC(Cc1ccc(O)c(O)c1)C(=O)O)C1CCC2C3C(O)CC4CC(O)CCC4(C)C3CC(O)C12C` (stereo not shown) [(101), Cholyl-DOPA]: on Human IBAT Transporter, the “% Max. (GDC) response” value worked out at 0%.

Turning to `C[C@H](CCC(=O)N[C@@H](Cc1ccc2oc(=O)oc2c1)C(=O)O)[C@H]1CC[C@H]2[C@@H]3[C@H](O)C[C@@H]4C[C@H](O)CC[C@]4(C)[C@H]3C[C@H](O)[C@]12C` [(104), Cholyl-Dopa-(3,4-carbonate)], the “% Max. (GDC) response” value at Human IBAT Transporter is on record as 25%. A word on the half-life: it is the time in which the quantity being followed falls by half. Regarding `C[C@@](Cc1ccc(O)c(O)c1)(NN)C(=O)O` [carbidopa], the half-life in series [1] is ~2 h. As to `N[C@@H](Cc1ccc(O)c(O)c1)C(=O)O` [levodopa, L-dihydroxyphenylalanine], the “oral bioavailability of levodopa” value in series [1] (from conventional formulations of levodopa/carbidopa (e.g. Sinemet)) is 84-99%. Also, in series [1], the half-life was ~2 h. In addition, the “administered dose reaching the CNS intact” value in series [1] (in patients) is listed as “less than 1%”. Take “Cholyl-DOPA-(4-pivaloyloxymethyl) [(102)]”: on Human IBAT Transporter, the “% Max. (GDC) response” value worked out at 104%.

The values above are taken from US20020151526A1, “Bile-acid prodrugs of L-dopa and their use in the sustained treatment of parkinsonism” (priority 2000, published 2002).
